Values of other authors, collected in patent US20050215536A1, “Sequential SPRM/ progestin treatment” (priority 2004, published 2005).

What was measured:
[1] = premenopausal women
[2] = biological target: T1, progesterone receptor (Oryctolagus cuniculus, UniProt P06186); conditions: for McPhail score: rabbit model, scale of 0-4; for agonist activity in the McPhail bioassay: rabbits
T1 construct: SPRMs score lower than progesterone in the McPhail bioassay in rabbits; from tissue; host or cells: live rabbit
T1 sequence (P06186 1-930): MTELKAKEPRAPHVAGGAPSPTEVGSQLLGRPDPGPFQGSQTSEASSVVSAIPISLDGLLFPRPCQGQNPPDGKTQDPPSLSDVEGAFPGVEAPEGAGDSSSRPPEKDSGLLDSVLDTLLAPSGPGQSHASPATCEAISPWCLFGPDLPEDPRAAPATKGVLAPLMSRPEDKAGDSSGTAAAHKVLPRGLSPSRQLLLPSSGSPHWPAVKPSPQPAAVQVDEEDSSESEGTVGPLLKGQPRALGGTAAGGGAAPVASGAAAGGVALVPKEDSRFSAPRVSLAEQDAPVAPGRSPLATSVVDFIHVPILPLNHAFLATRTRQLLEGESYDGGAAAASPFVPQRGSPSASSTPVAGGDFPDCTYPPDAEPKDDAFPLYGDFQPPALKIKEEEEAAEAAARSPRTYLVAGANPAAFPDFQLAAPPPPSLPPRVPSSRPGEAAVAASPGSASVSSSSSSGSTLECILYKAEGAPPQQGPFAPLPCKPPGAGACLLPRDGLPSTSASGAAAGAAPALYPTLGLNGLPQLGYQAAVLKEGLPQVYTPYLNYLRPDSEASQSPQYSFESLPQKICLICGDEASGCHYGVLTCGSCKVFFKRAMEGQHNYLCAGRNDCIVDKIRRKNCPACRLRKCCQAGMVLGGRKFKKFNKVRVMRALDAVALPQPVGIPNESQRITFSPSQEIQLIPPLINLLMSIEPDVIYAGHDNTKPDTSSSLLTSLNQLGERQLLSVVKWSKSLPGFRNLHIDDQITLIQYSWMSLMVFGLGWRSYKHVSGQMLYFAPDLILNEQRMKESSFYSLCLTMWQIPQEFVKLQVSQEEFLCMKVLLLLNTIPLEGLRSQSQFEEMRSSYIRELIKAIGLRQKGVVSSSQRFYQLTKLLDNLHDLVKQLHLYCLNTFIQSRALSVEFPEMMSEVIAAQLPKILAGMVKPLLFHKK

COC[C@]1(OC)CC[C@H]2[C@@H]3CCC4=CC(=O)CCC4=C3[C@@H](c3ccc(/C=N/O)cc3)C[C@@]21C [J867, 4-[17β-Methoxy-17α-(methoxymethyl)-3-oxoestra-4,9-dien-11β-yl]benzaldehyd-(1E)-oxim]
withdrawal bleeding (start of spontaneous menstrual cycle), time after stopping the SPRM treatment ([1]; all subjects, latest occurrence): up to 90 days | resumption of menstruation, time after cessation of treatment ([1]; majority of subjects): ≤ 30 days

CC#C[C@]1(O)CC[C@H]2[C@@H]3CCC4=CC(=O)CCC4=C3[C@@H](c3ccc(N(C)C)cc3)C[C@@]21C [RU486, mifepristone]
McPhail score [2]: less than 0.5 | agonist activity in the McPhail bioassay [2]: do not show any agonist activity

CN(C)c1ccc([C@H]2C[C@]3(C)[C@@H](CC[C@]3(O)CCCO)[C@@H]3CCC4=CC(=O)CCC4=C32)cc1 [onapristone]
agonist activity in the McPhail bioassay [2]: do not show any agonist activity

CC(=O)[C@H]1CC[C@H]2[C@@H]3CCC4=CC(=O)CC[C@]4(C)[C@H]3CC[C@]12C [progesterone]
McPhail score [2]: 4
